Values quoted from earlier work as cited in patent US20040192715A1, “Methods of administering opioid antagonists and compositions thereof” (priority 2003, published 2004).

Tests used:
[1] = oral administration
[2] = tested on: mice; details: parenteral administration to mice

## O=C1CC[C@@]2(O)[C@H]3Cc4ccc(O)c5c4[C@@]2(CCN3CC2CC2)C1O5 (stereo partly drawn) [naltrexone, 17-(cyclopropylmethyl) -4,5-epoxy-3,14-dihydroxymorphinan-6-one]
[1]
  oral bioavailability: 5-40%
other
  protein binding: approximately 21%
[2]
  analgesia: produce analgesia
